Structures are written as SMILES. A value given as a limit tells only on which side of the number the result lay.

In general, IC50 refers to the point on the concentration scale where inhibition reaches its midpoint. High values mean lower potency, low ones higher potency. What is called inhibition is the change of the read-out against control, counted positive when it falls.

Data set [1] is described as follows: Inhibition of human 20S proteasome.
Data set [2] has as its system HT-29. Nature of the data set: Inhibition of 20S proteasome in human HT-29 cells. The format is cell-based.
A short description of data set [3]: Metabolic stability of the compound in human HT-29 cells. In kind it is ADME, cell-based. Particulars: read-out: Stability (converted).
The test system of data set [4] is HT-29. Briefly: Inhibition of 20S proteasome in human HT-29 cells at 6.7 uM by luminescence-based assay. In kind it is cell-based.
Data set [5] is described as follows: Chemical stability of the compound. In kind it is physicochemical.
Data set [6] deals with HT-29. Nature of the data set: Cytotoxicity against human HT-29 cells. The format is cell-based.

For the compound `CCCCC[C@H]1CC(=O)N[C@@H](CO)C(=O)N[C@@H](Cc2ccccc2)C(=O)N[C@@H](Cc2ccc(O)cc2)C(=O)N[C@H](CCCNC(N)=O)C(=O)N[C@@H](CC(=O)O)C(=O)O1` [scytonemides B], the IC50 in data set [1] is more than 50 µM.
`CC[C@H](C)[C@H]1NC(=O)[C@@H](CCC(N)=O)NC(=O)CNC(=O)[C@H](Cc2ccc(O)cc2)/N=C/[C@H](CC(C)C)NC(=O)[C@H](C(C)C)NC(=O)[C@H](CO)NC1=O` [SCYTONEMIDES A] yielded an ED50 in the data set on HT-29 [2] of more than 20 µg/mL. For the same compound, in data set [3], the half-life was 2 h. The inhibition in the data set on HT-29 [4] came to 80%. This compound displayed a Stability in data set [5] of 3 days. The Activity result with HT-29 [6] is recorded as “Non-toxic”.

For the origin of these results see ChEMBL document CHEMBL1641403, “Scytonemides A and B, cyclic peptides with 20S proteasome inhibitory activity from the cultured cyanobacterium Scytonema hofmanii” (J Nat Prod, 2010).
